Data as given in ChEMBL document CHEMBL1156946, “Synthesis and SAR of derivatives based on 2-biarylethylimidazole as bombesin receptor subtype-3 (BRS-3) agonists for the treatment of obesity” (Bioorg Med Chem Lett, 2010).

How the values were obtained:
[1] = target: T1, Bombesin receptor subtype-3 (Homo sapiens, UniProt P32247); assay: biochemical; format: cell-based, CHO
T1 sequence (P32247 whole entry): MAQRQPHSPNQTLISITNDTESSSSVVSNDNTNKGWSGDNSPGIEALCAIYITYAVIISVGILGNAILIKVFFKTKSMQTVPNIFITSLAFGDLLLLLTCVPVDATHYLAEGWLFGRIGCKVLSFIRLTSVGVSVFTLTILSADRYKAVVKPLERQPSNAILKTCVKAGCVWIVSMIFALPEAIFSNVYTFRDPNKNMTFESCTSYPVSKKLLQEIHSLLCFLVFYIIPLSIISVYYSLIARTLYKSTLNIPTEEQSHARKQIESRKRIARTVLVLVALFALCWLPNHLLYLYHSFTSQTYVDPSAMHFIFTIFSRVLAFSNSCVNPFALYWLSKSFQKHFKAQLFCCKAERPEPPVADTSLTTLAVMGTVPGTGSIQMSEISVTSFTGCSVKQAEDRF
Description: Displacement of [125I]D-Tyr6-betaAla11-Phe13-Nle14-bombesin from human BRS-3 expressed in NFAT-CHO cells after 2 hrs by scintillation counting

[2] = target: T1, Bombesin receptor subtype-3; assay: Agonist activity at human BRS-3 expressed in HEK293 cells coexpressing AEQ over 10 mins by aequorin bioluminescence assay; format: functional, cell-based
[3] = target: T1, Bombesin receptor subtype-3; assay: Agonist activity at human BRS-3 expressed in HEK293 cells coexpressing AEQ over 10 mins by aequorin bioluminescence assay relative to D-Tyr6-betaAla11-Phe13-Nle14-bombesin; format: functional, cell-based
[4] = target: T2, Bombesin receptor subtype-3 (Mus musculus, UniProt O54798); assay: Agonist activity at mouse BRS-3 expressed in HEK293 cells coexpressing AEQ over 10 mins by aequorin bioluminescence assay; format: functional, cell-based
T2 sequence (O54798 whole entry): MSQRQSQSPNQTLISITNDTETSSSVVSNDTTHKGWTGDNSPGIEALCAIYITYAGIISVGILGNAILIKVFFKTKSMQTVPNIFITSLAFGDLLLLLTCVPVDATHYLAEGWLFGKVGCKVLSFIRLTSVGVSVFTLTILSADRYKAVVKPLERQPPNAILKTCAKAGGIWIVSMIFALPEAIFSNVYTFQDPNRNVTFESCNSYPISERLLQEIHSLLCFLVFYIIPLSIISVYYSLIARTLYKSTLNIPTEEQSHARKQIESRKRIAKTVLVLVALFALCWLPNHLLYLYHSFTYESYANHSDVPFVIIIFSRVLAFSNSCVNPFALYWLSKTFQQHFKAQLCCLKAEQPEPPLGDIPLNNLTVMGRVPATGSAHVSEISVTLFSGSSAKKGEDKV

[5] = target: T2, Bombesin receptor subtype-3; assay: Agonist activity at mouse BRS-3 expressed in HEK293 cells coexpressing AEQ over 10 mins by aequorin bioluminescence assay relative to D-Tyr6-betaAla11-Phe13-Nle14-bombesin; format: functional, cell-based
[6] = Drug level in rat plasma at 1 mg/kg, iv after 1 hr; format: ADME, organism-based; design: dose 1 mg/kg, route intravenous
[7] = Drug level in rat brain at 1 mg/kg, iv after 1 hr; format: ADME, organism-based; design: dose 1 mg/kg, route intravenous; settings: read-out: Drug uptake
[8] = Ratio of drug level in rat brain to plasma at 1 mg/kg, iv after 1 hr; format: ADME, organism-based; design: dose 1 mg/kg, route intravenous

| IC50 [1] [µM] | EC50 [2] [µM] | Emax [3] [%] | EC50 [4] [µM] | Emax [5] [%] | concentration at 1 h [6] [nM] | concentration at 1 h [7] [nM] | Kp at 1 h [8] | SMILES |
| --- | --- | --- | --- | --- | --- | --- | --- | --- |
| 0.01 | 0.044 | 100 | 0.0069 | 119 | 540 | 230 | 0.42 | CCC(C)(C)Cc1cnc(CCc2ccc(-c3cnsc3)cc2)[nH]1 |
| 0.045 | 0.538 | 104 | 0.011 | 109 | – | – | – | CCC(C)(C)Cc1cnc(CCc2ccc(-c3csnn3)cc2)[nH]1 |
| 0.051 | 0.431 | 100 | 0.011 | 107 | – | – | – | CCC(C)(C)Cc1c[nH]c(CCc2ccc(-c3cnccn3)cc2)n1 |
| – | 0.135 | 106 | 0.009 | 113 | 30 | 20 | 0.67 | CCC(C)(C)Cc1c[nH]c(CCc2ccc(-n3cccn3)cc2)n1 |
| 0.34 | 0.57 | 89 | 0.012 | 121 | 200 | 80 | 0.4 | CCC(C)(C)Cc1cnc(CCc2ccc(-n3cncn3)cc2)[nH]1 |
| 0.39 | 0.641 | 93 | 0.057 | 111 | – | – | – | CCC(C)(C)Cc1cnc(CCc2ccc(-n3ccnn3)cc2)[nH]1 |
| 0.011 | – | 101 | – | 94 | – | – | – | CCC(C)(C)Cc1c[nH]c(CCc2ccc(-c3ccccc3C(=O)O)cc2)n1 |
| 0.56 | 1.26 | 95 | 0.014 | 97 | – | – | – | CCC(C)(C)Cc1cnc(CCc2ccc(-c3cccnc3C(=O)O)cc2)[nH]1 |
| 2.82 | 5.23 | 15 | 0.305 | 90 | – | – | – | CCC(C)(C)Cc1c[nH]c(CCc2ccc(-c3cccc(C(=O)O)n3)cc2)n1 |
| 0.177 | 0.425 | 98 | 0.022 | 103 | 39 | 30 | 0.77 | c1ccc(-c2ccc(CCc3nc(CC4CCCC4)c[nH]3)cc2)nc1 |
| 0.0075 | 0.131 | 98 | 0.0043 | 97 | – | – | – | CCC(C)(C)Cc1cnc(CCc2ccc(-c3cccnc3)cc2)[nH]1 |
| 0.205 | 0.422 | 89 | 0.025 | 99 | – | – | – | CCC(C)(C)Cc1c[nH]c(CCc2ccc(-n3ncnn3)cc2)n1 |
| 0.028 | 0.171 | 108 | 0.028 | 133 | – | – | – | CCC(C)(C)Cc1cnc(CCc2ccc(N3CCCCC3)cc2)[nH]1 |
| 0.101 | 0.305 | 95 | 0.015 | 103 | – | – | – | CCC(C)(C)Cc1cnc(CCc2ccc(-c3ccncc3)cc2)[nH]1 |
| – | 0.105 | 102 | 0.019 | 106 | – | – | – | CCC(C)(C)Cc1c[nH]c(CCc2ccc(-c3cccc(C)n3)cc2)n1 |
| 0.0073 | 0.037 | 97 | 0.0039 | 119 | – | – | – | CCC(C)(C)Cc1c[nH]c(CCc2ccc(-c3cccc(N)n3)cc2)n1 |
| 0.036 | 0.063 | 103 | 0.0047 | 96 | – | – | – | O=C(O)c1cc(F)c(F)cc1-c1ccc(CCc2nc(CC3CCCCC3)c[nH]2)cc1 |
| 0.051 | 0.169 | 100 | 0.011 | 91 | – | – | – | CCC(C)(C)Cc1c[nH]c(CCc2ccc(-c3cccc(O)n3)cc2)n1 |
| 0.14 | 0.193 | 95 | 0.026 | 115 | – | – | – | CCC(C)(C)Cc1cnc(CCc2ccc(-c3cccc(C#N)n3)cc2)[nH]1 |
| 0.019 | 0.066 | 97 | 0.016 | 105 | – | – | – | CCC(C)(C)Cc1cnc(CCc2ccc(-c3ccc(F)cn3)cc2)[nH]1 |
| 0.011 | 0.063 | 102 | 0.0031 | 103 | – | – | – | CCC(C)(C)Cc1c[nH]c(CCc2ccc(-c3ccns3)cc2)n1 |
